From ChEMBL document CHEMBL1124865, “Synthesis and biological evaluation of a series of parenteral 3'-quaternary ammonium cephalosporins” (J Med Chem, 1990)
In brackets after ≈: the same amount, converted by molar mass.

Experiments:
Assay type in all cases: functional
[1] = test system: Enterobacter cloacae; assay: Antibacterial activity against Enterobacter cloacae EB5; conditions: Enterobacter cloacae; read-out: MIC
[2] = test system: Enterococcus faecium; assay: Antibacterial activity against Enterococcus faecium; conditions: Enterococcus faecium; read-out: MIC
[3] = test system: Escherichia coli; assay: Antibacterial activity against Escherichia coli EC14; conditions: Escherichia coli; read-out: MIC
[4] = test system: Staphylococcus aureus; assay: Antibacterial activity against penicillin G susceptible Staphylococcus aureus; conditions: Staphylococcus aureus; read-out: MIC
[5] = test system: Klebsiella pneumoniae; assay: Antibacterial activity against Klebsiella pneumoniae X26; conditions: Klebsiella pneumoniae; read-out: MIC
[6] = test system: Enterobacter cloacae; assay: Antibacterial activity against Enterobacter cloacae 265A; conditions: Enterobacter cloacae; read-out: MIC
[7] = test system: Streptococcus pneumoniae; assay: Antibacterial activity against Streptococcus pneumoniae; conditions: Streptococcus pneumoniae; read-out: MIC
[8] = test system: Escherichia coli; assay: Antibacterial activity against Escherichia coli TEM; conditions: Escherichia coli; read-out: MIC
[9] = test system: Staphylococcus aureus; assay: Antibacterial activity against penicillin G resistance Staphylococcus aureus; conditions: Staphylococcus aureus; read-out: MIC
[10] = test system: Klebsiella pneumoniae; assay: microbe, parasite or virus in culture; conditions: Klebsiella pneumoniae; read-out: MIC
Description: Antibacterial activity against Klebsiella pneumoniae 1082E

[11] = test system: Streptococcus pyogenes; assay: Antibacterial activity against Streptococcus pyogenes; conditions: Streptococcus pyogenes; read-out: MIC
[12] = test system: Pseudomonas aeruginosa; assay: Antibacterial activity against Pseudomonas aeruginosa X528; conditions: Pseudomonas aeruginosa; read-out: MIC
[13] = test system: Serratia marcescens; assay: Antibacterial activity against Serratia marcescens SE3; conditions: Serratia marcescens; read-out: MIC
[14] = test system: Pseudomonas aeruginosa; assay: Antibacterial activity against Pseudomonas aeruginosa PS18; conditions: Pseudomonas aeruginosa; read-out: MIC

Row | SMILES | MIC [1] | MIC [2] | MIC [3] | MIC [4] | MIC [5] | MIC [6] | MIC [7] | MIC [8] | MIC [9] | MIC [10] | MIC [11] | MIC [12] | MIC [13] | MIC [14]
1 | CO/N=C(\C(=O)N[C@@H]1C(=O)N2C(C(=O)[O-])=C(C[n+]3ccc4cncnc4c3)CS[C@H]12)c1csc(N)n1 | 1 µg/mL (≈ 1.9 µM) | 128 µg/mL (≈ 243 µM) | 0.25 µg/mL (≈ 0.475 µM) | 4 µg/mL (≈ 7.6 µM) | 0.125 µg/mL (≈ 0.237 µM) | 16 µg/mL (≈ 30.4 µM) | 0.03 µg/mL (≈ 0.057 µM) | 0.125 µg/mL (≈ 0.237 µM) | 32 µg/mL (≈ 60.8 µM) | 16 µg/mL (≈ 30.4 µM) | 0.06 µg/mL (≈ 0.114 µM) | 32 µg/mL (≈ 60.8 µM) | 1 µg/mL (≈ 1.9 µM) | 64 µg/mL (≈ 122 µM)
2 | CO/N=C(\C(=O)N[C@@H]1C(=O)N2C(C(=O)[O-])=C(C[n+]3ccc4ccoc4c3)CS[C@H]12)c1csc(N)n1 | 0.06 µg/mL (≈ 0.117 µM) | > 128 µg/mL | 0.015 µg/mL (≈ 0.0292 µM) | 1 µg/mL (≈ 1.94 µM) | 0.015 µg/mL (≈ 0.0292 µM) | 8 µg/mL (≈ 15.5 µM) | 0.015 µg/mL (≈ 0.0292 µM) | 0.015 µg/mL (≈ 0.0292 µM) | 8 µg/mL (≈ 15.5 µM) | 4 µg/mL (≈ 7.77 µM) | < 0.008 µg/mL | 2 µg/mL (≈ 3.89 µM) | 0.03 µg/mL (≈ 0.0583 µM) | 8 µg/mL (≈ 15.5 µM)
3 | CO/N=C(\C(=O)N[C@@H]1C(=O)N2C(C(=O)[O-])=C(C[n+]3cscc3C)CS[C@H]12)c1csc(N)n1 | 0.25 µg/mL (≈ 0.505 µM) | 32 µg/mL (≈ 64.7 µM) | 0.06 µg/mL (≈ 0.121 µM) | 2 µg/mL (≈ 4.04 µM) | 0.06 µg/mL (≈ 0.121 µM) | 8 µg/mL (≈ 16.2 µM) | 0.03 µg/mL (≈ 0.0607 µM) | 0.06 µg/mL (≈ 0.121 µM) | 4 µg/mL (≈ 8.09 µM) | 8 µg/mL (≈ 16.2 µM) | 0.03 µg/mL (≈ 0.0607 µM) | 16 µg/mL (≈ 32.4 µM) | 0.25 µg/mL (≈ 0.505 µM) | 32 µg/mL (≈ 64.7 µM)
4 | CCC(C)Nc1nc2cc[n+](CC3=C(C(=O)[O-])N4C(=O)[C@@H](NC(=O)/C(=N\OC)c5csc(N)n5)[C@H]4SC3)cc2s1 (stereo not given in full) | 0.25 µg/mL (≈ 0.415 µM) | 128 µg/mL (≈ 212 µM) | 0.06 µg/mL (≈ 0.0995 µM) | 0.5 µg/mL (≈ 0.83 µM) | 0.008 µg/mL (≈ 0.0133 µM) | 2 µg/mL (≈ 3.32 µM) | 0.008 µg/mL (≈ 0.0133 µM) | 0.015 µg/mL (≈ 0.0249 µM) | 0.5 µg/mL (≈ 0.83 µM) | 2 µg/mL (≈ 3.32 µM) | 0.008 µg/mL (≈ 0.0133 µM) | 16 µg/mL (≈ 26.5 µM) | 0.5 µg/mL (≈ 0.83 µM) | 128 µg/mL (≈ 212 µM)
5 | CO/N=C(\C(=O)N[C@@H]1C(=O)N2C(C(=O)[O-])=C(C[n+]3cccc4c(O)cccc43)CS[C@H]12)c1csc(N)n1 | 0.5 µg/mL (≈ 0.925 µM) | 128 µg/mL (≈ 237 µM) | 0.03 µg/mL (≈ 0.0555 µM) | 2 µg/mL (≈ 3.7 µM) | 0.03 µg/mL (≈ 0.0555 µM) | 32 µg/mL (≈ 59.2 µM) | 0.03 µg/mL (≈ 0.0555 µM) | 0.06 µg/mL (≈ 0.111 µM) | 2 µg/mL (≈ 3.7 µM) | 8 µg/mL (≈ 14.8 µM) | 0.015 µg/mL (≈ 0.0277 µM) | 8 µg/mL (≈ 14.8 µM) | 0.5 µg/mL (≈ 0.925 µM) | 8 µg/mL (≈ 14.8 µM)
6 | CO/N=C(\C(=O)N[C@@H]1C(=O)N2C(C(=O)[O-])=C(C[n+]3csc4c3CCC4)CS[C@H]12)c1csc(N)n1 | 0.25 µg/mL (≈ 0.48 µM) | 32 µg/mL (≈ 61.5 µM) | 0.06 µg/mL (≈ 0.115 µM) | 2 µg/mL (≈ 3.84 µM) | 0.06 µg/mL (≈ 0.115 µM) | 4 µg/mL (≈ 7.68 µM) | 0.06 µg/mL (≈ 0.115 µM) | 0.06 µg/mL (≈ 0.115 µM) | 4 µg/mL (≈ 7.68 µM) | 4 µg/mL (≈ 7.68 µM) | 0.06 µg/mL (≈ 0.115 µM) | 8 µg/mL (≈ 15.4 µM) | 0.125 µg/mL (≈ 0.24 µM) | 32 µg/mL (≈ 61.5 µM)
7 | CO/N=C(\C(=O)N[C@@H]1C(=O)N2C(C(=O)[O-])=C(C[n+]3ccc4[nH]c(-c5cccs5)nc4c3)CS[C@H]12)c1csc(N)n1 | 0.5 µg/mL (≈ 0.838 µM) | 128 µg/mL (≈ 215 µM) |  | 2 µg/mL (≈ 3.35 µM) | 0.015 µg/mL (≈ 0.0251 µM) |  | 0.008 µg/mL (≈ 0.0134 µM) |  | 8 µg/mL (≈ 13.4 µM) | 4 µg/mL (≈ 6.7 µM) | 0.008 µg/mL (≈ 0.0134 µM) |  | 1 µg/mL (≈ 1.68 µM) | 128 µg/mL (≈ 215 µM)
8 | CO/N=C(\C(=O)N[C@@H]1C(=O)N2C(C(=O)[O-])=C(C[n+]3ccc4cnccc4c3)CS[C@H]12)c1csc(N)n1 | 0.03 µg/mL (≈ 0.0571 µM) | 32 µg/mL (≈ 60.9 µM) | < 0.008 µg/mL | 1 µg/mL (≈ 1.9 µM) | < 0.008 µg/mL | 2 µg/mL (≈ 3.81 µM) | < 0.008 µg/mL | < 0.008 µg/mL | 1 µg/mL (≈ 1.9 µM) | 2 µg/mL (≈ 3.81 µM) | < 0.008 µg/mL | 2 µg/mL (≈ 3.81 µM) | 0.03 µg/mL (≈ 0.0571 µM) | 2 µg/mL (≈ 3.81 µM)
9 | CO/N=C(\C(=O)N[C@@H]1C(=O)N2C(C(=O)[O-])=C(C[n+]3cccc4cc[nH]c43)CS[C@H]12)c1csc(N)n1 | 2 µg/mL (≈ 3.89 µM) | > 128 µg/mL | 0.5 µg/mL (≈ 0.974 µM) | 1 µg/mL (≈ 1.95 µM) | 0.06 µg/mL (≈ 0.117 µM) | 32 µg/mL (≈ 62.3 µM) | 0.015 µg/mL (≈ 0.0292 µM) | 0.125 µg/mL (≈ 0.243 µM) | 8 µg/mL (≈ 15.6 µM) | 64 µg/mL (≈ 125 µM) | < 0.008 µg/mL | 32 µg/mL (≈ 62.3 µM) | 0.5 µg/mL (≈ 0.974 µM) | 64 µg/mL (≈ 125 µM)
10 | CO/N=C(\C(=O)N[C@@H]1C(=O)N2C(C(=O)[O-])=C(C[n+]3csc(CCOC(C)=O)c3C)CS[C@H]12)c1csc(N)n1 | 0.125 µg/mL (≈ 0.215 µM) | 32 µg/mL (≈ 55.1 µM) | 0.03 µg/mL (≈ 0.0517 µM) | 2 µg/mL (≈ 3.44 µM) | 0.015 µg/mL (≈ 0.0258 µM) | 2 µg/mL (≈ 3.44 µM) | 0.015 µg/mL (≈ 0.0258 µM) | 0.03 µg/mL (≈ 0.0517 µM) | 4 µg/mL (≈ 6.89 µM) | 8 µg/mL (≈ 13.8 µM) | 0.015 µg/mL (≈ 0.0258 µM) | 32 µg/mL (≈ 55.1 µM) | 0.125 µg/mL (≈ 0.215 µM) | 64 µg/mL (≈ 110 µM)
11 | CO/N=C(\C(=O)N[C@@H]1C(=O)N2C(C(=O)[O-])=C(C[n+]3ccsc3)CS[C@H]12)c1csc(N)n1 | 0.5 µg/mL (≈ 1.04 µM) | 64 µg/mL (≈ 133 µM) | 0.125 µg/mL (≈ 0.26 µM) | 4 µg/mL (≈ 8.32 µM) | 0.125 µg/mL (≈ 0.26 µM) | 32 µg/mL (≈ 66.6 µM) | 0.125 µg/mL (≈ 0.26 µM) | 0.125 µg/mL (≈ 0.26 µM) | 8 µg/mL (≈ 16.6 µM) | 8 µg/mL (≈ 16.6 µM) | 0.125 µg/mL (≈ 0.26 µM) | 32 µg/mL (≈ 66.6 µM) | 0.25 µg/mL (≈ 0.52 µM) | 16 µg/mL (≈ 33.3 µM)
